Measured values reported in US20250179052A1, “PYRIMIDINYL-OXY-QUINOLINE BASED HERBICIDAL COMPOUNDS” (SYNGENTA CROP PROTECTION AG, priority 2022, published 2025).

Tests used:
Conditions in all cases: 250 g/ha, evaluated after 13 days, five-point scale
[1] = tested on: Amaranthus retoflexus (AMARE); assay: Post-emergence herbicidal glasshouse test; format: in vivo
AMAPA [2] = assay: Post-emergence herbicidal glasshouse test; format: in vivo, Amaranthus tuberculatus
[3] = tested on: Echinochloa crus-galli (ECHCG); assay: Post-emergence herbicidal glasshouse test; format: in vivo
[4] = tested on: Ipomoea hederacea (IPOHE); assay: Post-emergence herbicidal glasshouse test; format: in vivo
Setaria faberi (SETFA) [5] = assay: Post-emergence herbicidal glasshouse test; format: in vivo
[6] = tested on: Amaranthus retoflexus (AMARE); assay: Pre-emergence herbicidal glasshouse test; format: in vivo
AMAPA [7] = assay: Pre-emergence herbicidal glasshouse test; format: in vivo, Amaranthus tuberculatus
[8] = tested on: Echinochloa crus-galli (ECHCG); assay: Pre-emergence herbicidal glasshouse test; format: in vivo
[9] = tested on: Ipomoea hederacea (IPOHE); assay: Pre-emergence herbicidal glasshouse test; format: in vivo
Setaria faberi (SETFA) [10] = assay: Pre-emergence herbicidal glasshouse test; format: in vivo

Structure (SMILES) | percentage damage caused to the plant, AMARE [1] | percentage damage caused to the plant, AMAPA (AMAPA [2]) | percentage damage caused to the plant, ECHCG [3] | percentage damage caused to the plant, IPOHE [4] | percentage damage caused to the plant, SETFA (Setaria faberi (SETFA) [5]) | percentage damage caused to the plant, AMARE [6] | percentage damage caused to the plant, AMAPA (AMAPA [7]) | percentage damage caused to the plant, ECHCG [8] | percentage damage caused to the plant, IPOHE [9] | percentage damage caused to the plant, SETFA (Setaria faberi (SETFA) [10])
Clc1cnc(Oc2cccc3ccncc23)nc1 [Compound 1.022] | 1 (1=0-20%) | 2 (2=21-40%) | 1 (1=0-20%) | 1 (1=0-20%) | 1 (1=0-20%) | 1 (1=0-20%) | 1 (1=0-20%) | 1 (1=0-20%) | 1 (1=0-20%) | 1 (1=0-20%)
Cc1nc(C(F)(F)Cl)nc2cccc(Oc3ncc(Cl)cn3)c12 [Compound 1.069] | 3 (3=41-60%) | 3 (3=41-60%) | 2 (2=21-40%) | 2 (2=21-40%) | 2 (2=21-40%) | 5 (5=81-100%) | 5 (5=81-100%) | 2 (2=21-40%) | 1 (1=0-20%) | 5 (5=81-100%)
Cc1ccc(Oc2ncc(Cl)cn2)c2c(C)nc(C(F)(F)F)nc12 [Compound 1.073] | 1 (1=0-20%) | 1 (1=0-20%) | 1 (1=0-20%) | 1 (1=0-20%) | 1 (1=0-20%) | 1 (1=0-20%) | 1 (1=0-20%) | 1 (1=0-20%) | 1 (1=0-20%) | 1 (1=0-20%)
FC(F)(F)c1ccc2c(Oc3ncc(Br)cn3)cccc2n1 [Compound 1.041] | 5 (5=81-100%) | 5 (5=81-100%) | 2 (2=21-40%) | 3 (3=41-60%) | 4 (4=61-80%) | 5 (5=81-100%) | 5 (5=81-100%) | 3 (3=41-60%) | 2 (2=21-40%) | 4 (4=61-80%)
FC(F)c1ncc2c(Oc3ncc(Cl)cn3)cccc2n1 [Compound 1.019] | 4 (4=61-80%) | 3 (3=41-60%) | 2 (2=21-40%) | 4 (4=61-80%) | 3 (3=41-60%) | 5 (5=81-100%) | 5 (5=81-100%) | 5 (5=81-100%) | 4 (4=61-80%) | 5 (5=81-100%)
Cc1ccc(Oc2ncc(Cl)cn2)c2cnc(C(F)(F)F)nc12 [Compound 1.068] | 3 (3=41-60%) | 2 (2=21-40%) | 1 (1=0-20%) | 2 (2=21-40%) | 1 (1=0-20%) | 5 (5=81-100%) | 5 (5=81-100%) | 3 (3=41-60%) | 2 (2=21-40%) | 3 (3=41-60%)
N#Cc1cnc(Oc2cccc3nc(C(F)(F)F)ncc23)nc1 [Compound 1.003] | 1 (1=0-20%) | 1 (1=0-20%) | 1 (1=0-20%) | 1 (1=0-20%) | 1 (1=0-20%) | 1 (1=0-20%) | 1 (1=0-20%) | 1 (1=0-20%) | 1 (1=0-20%) | 1 (1=0-20%)
Cc1nc(C(F)(F)F)nc2c(Br)ccc(Oc3ncc(Cl)cn3)c12 [Compound 1.072] | 1 (1=0-20%) | 1 (1=0-20%) | 1 (1=0-20%) | 1 (1=0-20%) | 1 (1=0-20%) | 1 (1=0-20%) | 2 (2=21-40%) | 1 (1=0-20%) | 1 (1=0-20%) | 1 (1=0-20%)
FC(F)(Cl)c1ncc2c(Oc3ncc(Cl)cn3)ccc(Cl)c2n1 [Compound 1.044] | 3 (3=41-60%) | 3 (3=41-60%) | 1 (1=0-20%) | 2 (2=21-40%) | 3 (3=41-60%) | 3 (3=41-60%) | 5 (5=81-100%) | 2 (2=21-40%) | 1 (1=0-20%) | 5 (5=81-100%)
Fc1cnc(Oc2cccc3nc(C(F)(F)F)ncc23)nc1 [Compound 1.070] | 4 (4=61-80%) | 4 (4=61-80%) | 4 (4=61-80%) | 4 (4=61-80%) | 4 (4=61-80%) | 5 (5=81-100%) | 5 (5=81-100%) | 5 (5=81-100%) | 5 (5=81-100%) | 5 (5=81-100%)
N#Cc1cc(Cl)cnc1Oc1cccc2nc(C(F)(F)F)ncc12 [Compound 1.007] | 2 (2=21-40%) | – | 3 (3=41-60%) | 2 (2=21-40%) | 4 (4=61-80%) | 4 (4=61-80%) | 4 (4=61-80%) | 4 (4=61-80%) | 2 (2=21-40%) | 5 (5=81-100%)
Cc1ccc(Oc2ncc(Br)cn2)c2ccc(C(F)(F)F)nc12 [Compound 1.026] | 2 (2=21-40%) | 2 (2=21-40%) | 1 (1=0-20%) | 1 (1=0-20%) | – | 1 (1=0-20%) | 1 (1=0-20%) | 1 (1=0-20%) | 1 (1=0-20%) | –
Cc1cc(C(F)(F)F)nc2cccc(Oc3ncc(Cl)cc3F)c12 [Compound 1.066] | 1 (1=0-20%) | 1 (1=0-20%) | 1 (1=0-20%) | 1 (1=0-20%) | – | 1 (1=0-20%) | 1 (1=0-20%) | 1 (1=0-20%) | 1 (1=0-20%) | –
